# Results taken from DBAASP.
# Key:
# Assay in all cases: ≥ marks a high value that may be exact or a test limit, other limits are often not marked, values filed in µg/mL are converted to µM
# [1] = tested on: Escherichia coli ATCC 25922
# [2] = tested on: Staphylococcus aureus ATCC 29213
# [3] = tested on: Pseudomonas aeruginosa ATCC 27853
# Bacillus cereus = tested on: Bacillus cereus
# Escherichia coli = tested on: Escherichia coli
# [4] = tested on: Staphylococcus epidermidis ATCC 12228
# Pseudomonas aeruginosa = tested on: Pseudomonas aeruginosa
# [5] = tested on: Candida albicans ATCC 2002
MIC [1],MIC [2],Compound,further results
5 µM,> 40 µM,CC[C@H](C)[C@H](NC(=O)[C@H](CCCN=C(N)N)NC(=O)[C@H](CCC(N)=O)NC(=O)[C@H](CCC(N)=O)NC(=O)[C@@H](NC(=O)[C@H](CCCN=C(N)N)NC(=O)[C@H](CCCCN)NC(=O)[C@@H](N)Cc1ccccc1)[C@@H](C)CC)C(=O)N[C@@H](CCCCN)C(=O)N[C@@H](CC(=O)O)C(=O)N[C@@H](Cc1ccccc1)C(=O)N[C@@H](CC(C)C)C(=O)N[C@@H](CCCN=C(N)N)C(=O)O [FKRIQQRIKDFLR],–
128 µM,63.9 µM,CC[C@H](C)[C@H](NC(=O)[C@H](CCSC)NC(=O)[C@H](C)NC(=O)[C@@H]1CCCN1C(=O)[C@@H](NC(=O)[C@@H](NC(=O)[C@H](CCCCN)NC(=O)[C@@H](NC(=O)[C@H](CC(C)C)NC(=O)CNC(=O)CNC(=O)[C@H](CC(C)C)NC(=O)[C@@H](N)Cc1ccccc1)[C@@H](C)CC)[C@@H](C)CC)C(C)C)C(=O)N[C@@H](CS)C(=O)N[C@@H](C)C(=O)N[C@H](C(=O)N[C@H](C(=O)N[C@@H](CCCCN)C(=O)N[C@@H](CCCCN)C(=O)O)[C@@H](C)O)C(C)C [FLGGLIKIVPAMICAVTKK],MIC [3]: 63.9 µM
–,–,CC[C@H](C)[C@H](NC(=O)[C@H](CCCN=C(N)N)NC(=O)CNC(=O)[C@@H](NC(=O)[C@H](Cc1ccccc1)NC(=O)[C@@H]1CCCN1C(=O)[C@H](CC(C)C)NC(=O)[C@@H](N)Cc1ccccc1)C(C)C)C(=O)N[C@@H](C)C(=O)N[C@@H](CO)C(=O)N[C@@H](CCCCN)C(=O)N[C@H](C(=O)N[C@H](C(=O)N1CCC[C@H]1C(=O)N[C@@H](CO)C(=O)N[C@H](C(=O)N[C@H](C(=O)NCC(=O)N[C@@H](CCCCN)C(=O)N[C@H](C(=O)O)C(C)C)[C@@H](C)CC)C(C)C)C(C)C)C(C)C [FLPFVGRIASKVVPSVIGKV],MIC (Bacillus cereus): ≥ 121 µM; MIC (Escherichia coli): > 121 µM
> 80 µM,–,CC[C@H](C)[C@H](NC(=O)CN)C(=O)N[C@@H](CCCCN)C(=O)N[C@@H](CCCCN)C(=O)N[C@@H](Cc1c[nH]c2ccccc12)C(=O)N[C@@H](CC(C)C)C(=O)N[C@@H](Cc1cnc[nH]1)C(=O)N[C@@H](CO)C(=O)N1CCC[C@H]1C(=O)N[C@@H](CCCCN)C(=O)N[C@@H](CCCCN)C(=O)N[C@@H](Cc1ccccc1)C(=O)NCC(=O)N[C@@H](CCCCN)C(=O)N[C@@H](CCCCN)C(=O)N[C@@H](Cc1ccccc1)C(=O)N1CCC[C@H]1C(=O)N[C@@H](CCCCN)C(=O)N[C@@H](CCCCN)C(=O)N[C@H](C(=O)N[C@@H](CCSC)C(=O)N[C@@H](CC(N)=O)C(=O)N[C@@H](CO)C(N)=O)[C@@H](C)CC [GIKKWLHSPKKFGKKFPKKIMNS],MIC [4]: 10 µM
40 µM,–,CC[C@H](C)[C@H](NC(=O)CN)C(=O)N[C@@H](CCCCN)C(=O)N[C@@H](CCCCN)C(=O)N[C@@H](Cc1c[nH]c2ccccc12)C(=O)N1CCC[C@H]1C(=O)N[C@@H](Cc1cnc[nH]1)C(=O)N[C@@H](CCCCN)C(=O)N1CCC[C@H]1C(=O)N[C@@H](CCCCN)C(=O)N[C@@H](CCCCN)C(=O)N[C@@H](Cc1ccccc1)C(=O)NCC(=O)N[C@@H](CCCCN)C(=O)N[C@@H](CCCCN)C(=O)N[C@@H](Cc1ccccc1)C(=O)N[C@H](C(=O)N[C@@H](CCCCN)C(=O)N[C@@H](CCCCN)C(=O)N[C@H](C(=O)N[C@@H](CCCCN)C(=O)N[C@@H](CC(N)=O)C(=O)N[C@@H](CO)C(N)=O)[C@@H](C)CC)C(C)C [GIKKWPHKPKKFGKKFVKKIKNS],MIC [4]: 10 µM
10 µM,–,CC[C@H](C)[C@H](NC(=O)CN)C(=O)N[C@@H](CCCCN)C(=O)N[C@@H](CCCCN)C(=O)N[C@@H](Cc1c[nH]c2ccccc12)C(=O)N1CCC[C@H]1C(=O)N[C@@H](Cc1cnc[nH]1)C(=O)N[C@@H](CO)C(=O)N1CCC[C@H]1C(=O)N[C@@H](CCCCN)C(=O)N[C@@H](CCCCN)C(=O)N[C@@H](Cc1ccccc1)C(=O)NCC(=O)N[C@@H](CCCCN)C(=O)N[C@@H](CCCCN)C(=O)N[C@@H](Cc1ccccc1)C(=O)N[C@H](C(=O)N[C@@H](CCCCN)C(=O)N[C@@H](CCCCN)C(=O)N[C@H](C(=O)N[C@@H](CCSC)C(=O)N[C@@H](CC(N)=O)C(=O)N[C@@H](CO)C(N)=O)[C@@H](C)CC)C(C)C [GIKKWPHSPKKFGKKFVKKIMNS],MIC [4]: 10 µM
–,–,CC[C@H](C)[C@H](NC(=O)[C@H](CO)NC(=O)[C@H](CCCCN)NC(=O)[C@@H](NC(=O)[C@@H](NC(=O)[C@@H](NC(=O)[C@@H](NC(=O)[C@H](CCCCN)NC(=O)[C@@H](NC(=O)[C@@H](NC(=O)[C@@H](N)CCCCN)[C@@H](C)CC)C(C)C)C(C)C)[C@@H](C)CC)[C@@H](C)O)C(C)C)C(=O)N[C@@H](CO)C(=O)N1CCC[C@H]1C(=O)N[C@@H](C)C(=O)N[C@@H](CO)C(=O)N[C@@H](CC(C)C)C(=O)N[C@H](C(=O)N1CCC[C@H]1C(=O)N[C@H](C(=O)N[C@@H](Cc1ccccc1)C(=O)O)C(C)C)C(C)C [KIVKVITVKSISPASLVPVF],MIC (Bacillus cereus): ≥ 60.2 µM; MIC (Escherichia coli): > 60.2 µM
14.1 µM,10 µM,CC(=O)N[C@@H](CCCCN)C(=O)N[C@@H](CC(C)C)C(=O)N[C@@H](CC(C)C)C(=O)N[C@@H](CCCCN)C(=O)N[C@@H](CC(C)C)C(=O)N[C@@H](CC(C)C)C(=O)N[C@@H](CCCCN)C(=O)N[C@@H](CCCCN)C(=O)N[C@@H](CC(C)C)C(=O)N[C@@H](CC(C)C)C(=O)N[C@@H](CCCCN)C(=O)N[C@@H](CC(C)C)C(=O)N1CCC[C@H]1C(=O)N[C@@H](CCCCN)C(N)=O [KLLKLLKKLLKLPK],–
–,–,CC[C@H](C)[C@H](NC(=O)[C@H](Cc1ccccc1)NC(=O)[C@H](CO)NC(=O)[C@H](CC(N)=O)NC(=O)[C@H](Cc1c[nH]c2ccccc12)NC(=O)[C@@H](N)CCCCN)C(=O)N[C@@H](CCCCN)C(=O)N[C@@H](CCCCN)C(=O)N[C@@H](CC(C)C)C(=O)N[C@H](C(=O)N[C@@H](CO)C(=O)N[C@@H](CCCCN)C(=O)N[C@@H](Cc1ccccc1)C(=O)N[C@@H](CC(C)C)C(=O)N[C@@H](Cc1cnc[nH]1)C(=O)N[C@@H](CO)C(=O)N[C@@H](C)C(=O)N[C@@H](CCCCN)C(=O)N[C@@H](CCCCN)C(=O)N[C@@H](Cc1ccccc1)C(N)=O)[C@@H](C)O [KWNSFIKKLTSKFLHSAKKF],MIC (Pseudomonas aeruginosa): 5.13 µM
10 µM,10 µM,CC(C)C[C@H](NC(=O)[C@H](CC(C)C)NC(=O)[C@H](CCCCN)NC(=O)[C@H](CCCCN)NC(=O)[C@H](CC(C)C)NC(=O)[C@H](CC(C)C)NC(=O)[C@H](CCCCN)NC(=O)[C@H](CC(C)C)NC(=O)[C@H](CC(C)C)NC(=O)[C@H](CCCCN)NC(=O)[C@H](CCCCN)NC(=O)[C@@H](N)CC(C)C)C(=O)N[C@@H](CCCCN)C(=O)N[C@@H](C)C(=O)N[C@@H](C)C(=O)NCC(=O)O [LKKLLKLLKKLLKAAG],–
7.01 µM,> 56.1 µM,CC[C@H](C)[C@H](NC(=O)[C@H](C)NC(=O)[C@H](CCCCN)NC(=O)[C@@H](N)CCC(N)=O)C(=O)N[C@@H](CCCN=C(N)N)C(=O)N[C@H](C(=O)N[C@@H](CCCN=C(N)N)C(=O)N[C@@H](CC(C)C)C(=O)N[C@@H](CO)C(=O)N[C@@H](C)C(=O)O)C(C)C [QKAIRVRLSA],MIC [3]: 7.01 µM
> 54.7 µM,> 54.7 µM,CC[C@H](C)[C@H](NC(=O)[C@H](CCCCN)NC(=O)[C@H](CCCCN)NC(=O)[C@@H](N)CCC(N)=O)C(=O)N[C@@H](CCCN=C(N)N)C(=O)N[C@@H](C)C(=O)N[C@@H](CCCN=C(N)N)C(=O)N[C@@H](CC(C)C)C(=O)N[C@@H](CO)C(=O)N[C@@H](C)C(=O)O [QKKIRARLSA],MIC [3]: > 54.7 µM
3.6 µM,–,CC[C@H](C)[C@H](NC(=O)[C@@H](NC(=O)[C@@H](NC(=O)[C@@H]1CCCN1C(=O)[C@H](Cc1c[nH]c2ccccc12)NC(=O)[C@H](Cc1ccccc1)NC(=O)[C@H](CCCN=C(N)N)NC(=O)[C@H](CCCCN)NC(=O)[C@@H](NC(=O)[C@@H](N)CCCN=C(N)N)[C@@H](C)CC)C(C)C)C(C)C)C(=O)N[C@@H](CCCN=C(N)N)C(=O)N[C@H](C(=O)N[C@H](C(=O)N[C@H](C(=O)N[C@@H](C)C(=O)NCC(=O)N[C@@H](Cc1ccc(O)cc1)C(=O)N[C@@H](CC(N)=O)C(=O)N[C@@H](CC(C)C)C(=O)N[C@@H](Cc1ccc(O)cc1)C(=O)N[C@@H](CCCN=C(N)N)C(=O)O)C(C)C)C(C)C)[C@@H](C)O [RIKRFWPVVIRTVVAGYNLYR],MIC [5]: 3.6 µM
80 µM,20 µM,NC(=O)[C@H](Cc1ccccc1)NC(=O)[C@H](Cc1ccccc1)NC(=O)[C@H](Cc1ccccc1)NC(=O)[C@H](Cc1ccccc1)NC(=O)[C@@H]1CCCN1C(=O)[C@H](CCCN=C(N)N)NC(=O)[C@@H]1CCCN1C(=O)[C@H](CCCN=C(N)N)NC(=O)[C@@H]1CCCN1C(=O)[C@H](CCCN=C(N)N)NC(=O)[C@@H]1CCCN1C(=O)[C@H](CCCN=C(N)N)NC(=O)[C@@H](N)CCCN=C(N)N [RRPRPRPRPFFFF],MIC [3]: 40 µM
47 µM,94 µM,CC(C)[C@H](NC(=O)[C@H](Cc1c[nH]c2ccccc12)NC(=O)[C@H](Cc1c[nH]c2ccccc12)NC(=O)[C@@H](N)CCCN=C(N)N)C(=O)N[C@@H](C)C(=O)N[C@@H](Cc1c[nH]c2ccccc12)C(=O)N[C@@H](CCCN=C(N)N)C(=O)N[C@@H](CC(N)=O)C(=O)N[C@@H](CCCN=C(N)N)C(=O)O [RWWVAWRNR],–
> 496 µM,> 496 µM,CC[C@H](C)[C@H](NC(=O)[C@@H](NC(=O)[C@H](C)NC(=O)[C@H](CCCN=C(N)N)NC(=O)[C@H](CC(N)=O)NC(=O)[C@H](Cc1ccccc1)NC(=O)[C@H](CO)NC(=O)[C@@H](N)C(C)C)C(C)C)C(=O)N[C@@H](Cc1cnc[nH]1)C(=O)N[C@@H](CO)C(=O)N[C@@H](CC(C)C)C(=O)N[C@@H](CC(C)C)C(=O)NCC(N)=O [VSFNRAVIHSLLG],–
